Among the data in ChEMBL document CHEMBL1759966, “Design and optimisation of orally active TLR7 agonists for the treatment of hepatitis C virus infection” (Bioorg Med Chem Lett, 2011) are logD and half-life values, retold here.

The term logD denotes the decadic logarithm of the distribution of all forms, ionised or not, between an organic phase and buffer at a given pH. A higher logD goes with a more lipophilic compound. Usually half-life stands for the time in which the quantity being followed falls by half.

Data set [1] in a line: Lipophilicity, log D of the compound. The data set is classed as physicochemical. The settings on record: octanol/water.
Data set [2] is described as follows: Half life in rat cytosol. The data set is classed as ADME.

Each structure is given as a SMILES string. A value given as a limit tells only on which side of the number the result lay.

In data set [1], `Nc1nc(C(F)(F)F)cc2c1[nH]c(=O)n2Cc1ccccc1` registered a logD of 3.3. In data set [1], `COCCCn1c(=O)[nH]c2c(N)nc(C(F)(F)F)cc21` gave a logD of 1.9. Still for that read-out and setting: with `Nc1nc(C(F)(F)F)cc2c1[nH]c(=O)n2CC1CCCOC1` (centres undefined) the figure was 2. On to `Cc1ccc(Cn2c(=O)[nH]c3c(N)nc(C(F)(F)F)cc32)nc1`, for which, in data set [1], the logD came out at 2.2. For the same compound, the half-life in data set [2] came to 1.38 h. The compound `Cc1ncc(Cn2c(=O)[nH]c3c(N)nc(C(F)(F)F)cc32)cn1` registered a logD in data set [1] of 1.6. Consider `Cc1cnc(Cn2c(=O)[nH]c3c(N)nc(C(F)(F)F)cc32)cn1`, for which, in data set [1], the logD stood at 1.8. On to `Cc1cc(Cn2c(=O)[nH]c3c(N)nc(C(F)(F)F)cc32)no1`, for which the logD in data set [1] stood at 2.1. In data set [2], the half-life was > 16.7 h. In the same order, the values of `Cc1nc(Cn2c(=O)[nH]c3c(N)nc(C(F)(F)F)cc32)cs1` are 2.3 and > 16.7 h. In data set [1], `Cc1nc(Cn2c(=O)[nH]c3c(N)nc(C(F)(F)F)cc32)co1` returned a logD of 1.7. Also, in data set [2], the half-life was > 16.7 h. In the same order, the values of `Cc1ccc(Cn2c(=O)[nH]c3c(N)nc(-c4nc(C)co4)cc32)cn1` are 2.1 and > 16.7 h. Turning to `Cc1ccc(Cn2c(=O)[nH]c3c(N)nc(-n4nccn4)cc32)cn1`, in data set [1], the logD worked out at 1.6. On the same count and under the same terms, the figure for `Cc1ccc(Cn2c(=O)[nH]c3c(N)nc(OCC4CCN(C)CC4)cc32)cn1` is 0.2; for `COCCCOc1cc2c([nH]c(=O)n2Cc2ccc(C)nc2)c(N)n1` it is 1.8. On the same count and under the same terms, the figure for `Cc1ccc(Cn2c(=O)[nH]c3c(N)nc(OCC4CCOC4)cc32)cn1` (centres undefined) is 1.8.
